From article PMC7367873, “Dissecting the sequence determinants for dephosphorylation by the catalytic subunits of phosphatases PP1 and PP2A” (Nature Communications, 2020)
Each block holds one substance with its values, some of them ahead of it.

Tests used:
GFP-14-3-3β = GFP-14-3-3β co-IP with LC-MS/MS, untreated GFP-14-3-3β versus GFP control (14-3-3 interactome); assay type: binding, human
Procedure: (§1) HeLa Kyoto cells expressing transiently transfected pEGFP(C1)-14-3-3β or pEGFP(C1) control plasmid, were incubated with 20 nM Calyculin A (# 9902 S, Cell Signaling Technology) for 12 min. Cells were washed twice on ice with cold PBS and after addition of 500 µL lysis buffer (100 mM NaCl, 10 mM Tris, 0.1% IGEPAL, 1 mM EDTA, 1 mM EGTA, 20 nM Calyculin A, 1x cOmplete Mini protease inhibitor cocktail (Sigma), 1 mM DTT, 1 mM MnCl2) cells were scraped from plates, lysed by 10 pushes through an injection needle (21 G, BD) and the insoluble fraction was pelleted by centrifugation (10 min, 10^4 rcf, 4 °C). Supernatants were then subjected to incubation with 1 µM recombinant phosphatase or buffer for 1 h at 30 °C. Next, we subjected samples to immunoprecipitation using α-GFP nanobodies covalently coupled to agarose beads (2 h, 4 °C, obtained from the EMBL PEPcore Core Facility). Beads were then washed three times with lysis buffer and samples were eluted in 1x LDS sample buffer (Thermo Fisher Scientific) by heating to 70 °C for 10 min.
(§2) The samples were then reduced with 25 mM dithiothreitol (10 min at 70 °C) and alkylated with 55 mM chloroacetamide (room temperature, 30 min, in the dark). Proteins were run on a precast 4–12% NuPAGE gel (ThermoFisher Scientific) for about 1 cm to concentrate the sample prior to in-gel tryptic digestion, which was performed according to the standard procedures. The peptides obtained were dried to completeness and resuspended in 12 µL of buffer A (0.1% FA), and 5 µL of sample were injected per MS measurement. The experiment was carried out in three independent replicates.
(§3) The samples were analyzed by LC-MS/MS on a Dionex Ultimate 3000 nano-HPLC coupled online to a Fusion Lumos Tribrid mass spectrometer (Thermo Fisher Scientific). Peptides were delivered to a trap column (75 µm × 2 cm, packed in-house with 5 µm C18 resin; Reprosil PUR AQ, Dr. Maisch) and washed using 0.1% FA at a flow rate of 5 µL/min for 10 min. Subsequently, peptides were transferred to an analytical column (75 µm × 45 cm, packed in-house with 3 µm C18 resin; Reprosil Gold) applying a flow rate of 300 nL/min and separated using a 60 min linear gradient from 4% to 32% LC solvent B (0.1% FA, 5% DMSO in ACN) in LC solvent A (0.1% FA in 5% DMSO). The eluate from the analytical column was sprayed via a stainless steel emitter (Thermo Fisher Scientific) at a source voltage of 2.1 kV into the mass spectrometer. The transfer capillary was heated to 275 °C. The Fusion Lumos was operated in positive ionization mode and data-dependent acquisition (DDA), automatically switching between MS1 and MS2 spectrum acquisition. Full scan MS1 spectra were recorded in the Orbitrap from 360 to 1300 m/z at a resolution of 60k (automatic gain control (AGC) target value of 4e5 charges, maximum injection time (maxIT) of 50 ms). Up to 20 peptide precursors were isolated (isolation window, 1.7 m/z; maximum injection time, 25 ms; and AGC value, 1e5), fragmented by high-energy collision-induced dissociation (HCD) using 30% normalized collision energy (NCE), and analyzed at a resolution of 15k in the Orbitrap. Precursor ions that were singly charged, unassigned, or with charge states >6+ were excluded. The dynamic exclusion duration of fragmented precursor ions was 20 s.
(§4) Peptide and protein identification and LFQ were performed using MaxQuant software (version 1.6.1.0)[64] by searching the data against all canonical protein sequences as annotated in the Swissprot reference database (human proteins only, 20193 entries, downloaded 22 March 2016, internally annotated with PFAM domains) using the embedded search engine Andromeda[65]. The MaxQuant search was performed using two variable modifications; oxidation of methionine and N-terminal protein acetylation. Carbamidomethylation on cysteines was specified as a fixed modification. Trypsin (Trypsin/P) was specified as the proteolytic enzyme with up to two allowed missed cleavage sites.

[1] = tested on: GFP-14-3-3β and its binding proteins; test: GFP-14-3-3β co-IP with LC-MS/MS label-free quantification, untreated versus PP1c-treated; parameters: species or system human
Procedure: as §1, §2, §3, §4

[2] = GFP-14-3-3β co-IP LC-MS/MS, untreated vs GFP, student's t-test, label-free quantification, 3 replicates each
[3] = GFP-14-3-3β co-IP LC-MS/MS, PP1 vs untreated, student's t-test, label-free quantification, 3 replicates each
[4] = pairwise comparison untreated vs GFP
[5] = pairwise comparison PP1 vs untreated
[6] = untreated vs GFP, LFQ intensities, replicates 1-3
[7] = PP1 vs untreated, LFQ intensities, replicates 1-3
[8] = untreated vs GFP, LFQ intensities, 3 replicates each
[9] = PP1 vs untreated, LFQ intensities, 3 replicates each
[10] = log2 difference, pairwise comparison untreated vs GFP, label-free quantification, 3 replicates each
[11] = log2 difference, pairwise comparison PP1 vs untreated, label-free quantification, 3 replicates each
[12] = untreated vs GFP, label-free quantification
[13] = PP1 vs untreated, label-free quantification
[14] = pairwise comparison untreated GFP-14-3-3β vs GFP, student's t-test, 3 replicates each, LC-MS/MS label-free quantification
[15] = pairwise comparison PP1 vs untreated, student's t-test, 3 replicates each, LC-MS/MS label-free quantification

Difference (log2), PP1 vs untreated [1, 3]: -0.2654 log2
Substance: SNRNP200
Difference (log2), untreated vs GFP (GFP-14-3-3β; [2]): 1.652 log2

Difference (log2), PP1 vs untreated [1, 3]: -0.6263 log2
Substance: HSPA5
Difference (log2), untreated vs GFP (GFP-14-3-3β; [2]): -0.3432 log2

Difference (log2), PP1 vs untreated [1, 5]: -0.1328 log2
Substance: TOMM40
Difference (log2), untreated vs GFP (GFP-14-3-3β; [4]): 1.138 log2

Difference (log2), PP1 vs untreated [1, 9]: 0.6235 log2
Substance: FAM98A
Difference (log2), untreated vs GFP (GFP-14-3-3β; [8]): 0.9941 log2

Difference (log2), PP1 vs untreated [1, 7]: -1.162 log2
Substance: TNKS1BP1
Difference (log2), untreated vs GFP (GFP-14-3-3β; [6]): 1.91 log2

Difference (log2), PP1 vs untreated [1, 3]: -0.2534 log2
Substance: SLC7A5
Difference (log2), untreated vs GFP (GFP-14-3-3β; [2]): 0.7726 log2

Difference (log2), PP1 vs untreated [1, 5]: -0.1402 log2
Substance: DNAJA1
Difference (log2), untreated vs GFP (GFP-14-3-3β; [4]): -0.4796 log2

Difference (log2), PP1 vs untreated [1, 11]: 4.203
Substance: DSP
Difference (log2), untreated vs GFP (GFP-14-3-3β; [10]): -0.252

Difference (log2), PP1 vs untreated [1, 7]: -1.354 log2
Substance: YWHAQ
Difference (log2), untreated vs GFP (GFP-14-3-3β; [6]): 7.871 log2

Difference (log2), PP1 vs untreated [1, 13]: 0.8257 log2
Substance: FYN
Difference (log2), untreated vs GFP (GFP-14-3-3β; [12]): -1.633 log2

Difference (log2), PP1 vs untreated [1, 11]: 1.396
Substance: MYO5A
Difference (log2), untreated vs GFP (GFP-14-3-3β; [10]): 0.8351

Difference (log2), PP1 vs untreated [1, 13]: 1.148 log2
Substance: MED1
Difference (log2), untreated vs GFP (GFP-14-3-3β; [12]): 0.09613 log2

Difference (log2), PP1 vs untreated [1, 3]: -0.1766 log2
Substance: SMN1
Difference (log2), untreated vs GFP (GFP-14-3-3β; [2]): 1.023 log2

Difference (log2), PP1 vs untreated [1, 3]: -0.3658 log2
Substance: CHD4
Difference (log2), untreated vs GFP (GFP-14-3-3β; [2]): 2.168 log2

Difference (log2), PP1 vs untreated [1, 7]: -1.168 log2
Substance: HEATR1
Difference (log2), untreated vs GFP (GFP-14-3-3β; [6]): 3.268 log2

Difference (log2), PP1 vs untreated [1, 3]: -0.3502 log2
Substance: KARS
Difference (log2), untreated vs GFP (GFP-14-3-3β; [2]): -0.1156 log2

Difference (log2), PP1 vs untreated [1, 15]: -3.571 log2
Substance: WWC2
Difference (log2), untreated vs GFP (GFP-14-3-3β; [14]): 4.409 log2

Difference (log2), PP1 vs untreated [1, 15]: -4.455 log2
Substance: DNMBP
Difference (log2), untreated vs GFP (GFP-14-3-3β; [14]): 3.515 log2

Difference (log2), PP1 vs untreated [1, 7]: -1.298 log2
Substance: YWHAZ
Difference (log2), untreated vs GFP (GFP-14-3-3β; [6]): 6.453 log2

Difference (log2), PP1 vs untreated [1, 7]: -1.739 log2
Substance: RPA3
Difference (log2), untreated vs GFP (GFP-14-3-3β; [6]): -0.7925 log2

Continued, substance first:

Substance: RICTOR
Difference (log2), untreated vs GFP (GFP-14-3-3β; [6]): 3.3487 log2
Difference (log2), PP1 vs untreated [1, 7]: -0.7631 log2

Substance: NONO
Difference (log2), untreated vs GFP (GFP-14-3-3β; [6]): 0.331 log2
Difference (log2), PP1 vs untreated [1, 7]: -0.8439 log2

Substance: CSE1L
Difference (log2), untreated vs GFP (GFP-14-3-3β; [4]): -0.7283 log2
Difference (log2), PP1 vs untreated [1, 5]: 0.2293 log2

Substance: SFN
Difference (GFP-14-3-3β; UntrtedvsGFP, Perseus raw output, LFQ intensity difference): 10.1517
Difference (log2), untreated vs GFP (GFP-14-3-3β; [14]): 10.1517 log2
Difference (log2), PP1 vs untreated [1, 15]: -4.908 log2

Substance: LARP4
Difference (log2), untreated vs GFP (GFP-14-3-3β; [12]): -0.1959 log2
Difference (log2), PP1 vs untreated [1, 13]: 0.983 log2

Substance: TECR
Difference (log2), untreated vs GFP (GFP-14-3-3β; [8]): -0.1984 log2
Difference (log2), PP1 vs untreated [1, 9]: 0.5371 log2

Substance: TSC2
Difference (log2), untreated vs GFP (GFP-14-3-3β; [14]): 4.192 log2
Difference (log2), PP1 vs untreated [1, 15]: -4.834 log2

Substance: LMO7
Difference (log2), untreated vs GFP (GFP-14-3-3β; [14]): 0.9984 log2
Difference (log2), PP1 vs untreated [1, 15]: -2.202 log2

Substance: PRPF8
Difference (log2), untreated vs GFP (GFP-14-3-3β; [2]): 2.212 log2
Difference (log2), PP1 vs untreated [1, 3]: -0.1499 log2

Substance: LARP4B
Difference (log2), untreated vs GFP (GFP-14-3-3β; [12]): 0.9646 log2
Difference (log2), PP1 vs untreated [1, 13]: 0.8043 log2

Substance: ASCC3
Difference (log2), untreated vs GFP (GFP-14-3-3β; [8]): -0.1721 log2
Difference (log2), PP1 vs untreated [1, 9]: 0.6228 log2

Substance: FXR1
Difference (log2), untreated vs GFP (GFP-14-3-3β; [10]): -1.238
Difference (log2), PP1 vs untreated [1, 11]: 2.4595

Substance: CLPX
Difference (log2), untreated vs GFP (GFP-14-3-3β; [12]): 0.9407 log2
Difference (log2), PP1 vs untreated [1, 13]: 1.1943 log2

Substance: LGALS3
Difference (log2), untreated vs GFP (GFP-14-3-3β; [6]): 0.3389 log2
Difference (log2), PP1 vs untreated [1, 7]: -0.9155 log2
